Results published in US10919911B2, “Tricyclic ASK1 inhibitors” (Terns, Inc., priority 2018, dated 2021).

Biological target: ASK1 kinase (Homo sapiens (Human), UniProt Q99683)
Assay: RBC Kinase Assay (33P-ATP radiometric, myelin basic protein substrate)
Assay type: biochemical
Conditions: 20 ng ASK1 kinase, MBP substrate, 120 min at room temperature, 1% DMSO
Description: Example B1. RBC Kinase Assay Protocol
Base Reaction buffer: 20 mM Hepes (pH 7.5), 10 mM MgCl2, 1 mM EGTA, 0.02% Brij35, 0.02 mg/ml BSA, 0.1 mM Na3VO4, 2 mM DTT, and 1% DMSO were used for the assay.
Myelin base protein (MPB) was prepared in freshly prepared Base Reaction Buffer. 20 ng of ASK1 kinase was delivered into the substrate solution and gently mixed. Compounds in DMSO were delivered into the kinase reaction mixture (final DMSO concentration 1%). Commercially available 33P-ATP was delivered into the reaction mixture to initiate the reaction. The kinase reaction was incubated for 120 min. at room temperature. Reactions were spotted onto P81 ion exchange paper (Whatman #3698-915). Filters were washed extensively in 0.75% Phosphoric acid. Radioactivity on filters was read, and IC50 values were determined.

Sequence of ASK1 kinase (Q99683 whole entry): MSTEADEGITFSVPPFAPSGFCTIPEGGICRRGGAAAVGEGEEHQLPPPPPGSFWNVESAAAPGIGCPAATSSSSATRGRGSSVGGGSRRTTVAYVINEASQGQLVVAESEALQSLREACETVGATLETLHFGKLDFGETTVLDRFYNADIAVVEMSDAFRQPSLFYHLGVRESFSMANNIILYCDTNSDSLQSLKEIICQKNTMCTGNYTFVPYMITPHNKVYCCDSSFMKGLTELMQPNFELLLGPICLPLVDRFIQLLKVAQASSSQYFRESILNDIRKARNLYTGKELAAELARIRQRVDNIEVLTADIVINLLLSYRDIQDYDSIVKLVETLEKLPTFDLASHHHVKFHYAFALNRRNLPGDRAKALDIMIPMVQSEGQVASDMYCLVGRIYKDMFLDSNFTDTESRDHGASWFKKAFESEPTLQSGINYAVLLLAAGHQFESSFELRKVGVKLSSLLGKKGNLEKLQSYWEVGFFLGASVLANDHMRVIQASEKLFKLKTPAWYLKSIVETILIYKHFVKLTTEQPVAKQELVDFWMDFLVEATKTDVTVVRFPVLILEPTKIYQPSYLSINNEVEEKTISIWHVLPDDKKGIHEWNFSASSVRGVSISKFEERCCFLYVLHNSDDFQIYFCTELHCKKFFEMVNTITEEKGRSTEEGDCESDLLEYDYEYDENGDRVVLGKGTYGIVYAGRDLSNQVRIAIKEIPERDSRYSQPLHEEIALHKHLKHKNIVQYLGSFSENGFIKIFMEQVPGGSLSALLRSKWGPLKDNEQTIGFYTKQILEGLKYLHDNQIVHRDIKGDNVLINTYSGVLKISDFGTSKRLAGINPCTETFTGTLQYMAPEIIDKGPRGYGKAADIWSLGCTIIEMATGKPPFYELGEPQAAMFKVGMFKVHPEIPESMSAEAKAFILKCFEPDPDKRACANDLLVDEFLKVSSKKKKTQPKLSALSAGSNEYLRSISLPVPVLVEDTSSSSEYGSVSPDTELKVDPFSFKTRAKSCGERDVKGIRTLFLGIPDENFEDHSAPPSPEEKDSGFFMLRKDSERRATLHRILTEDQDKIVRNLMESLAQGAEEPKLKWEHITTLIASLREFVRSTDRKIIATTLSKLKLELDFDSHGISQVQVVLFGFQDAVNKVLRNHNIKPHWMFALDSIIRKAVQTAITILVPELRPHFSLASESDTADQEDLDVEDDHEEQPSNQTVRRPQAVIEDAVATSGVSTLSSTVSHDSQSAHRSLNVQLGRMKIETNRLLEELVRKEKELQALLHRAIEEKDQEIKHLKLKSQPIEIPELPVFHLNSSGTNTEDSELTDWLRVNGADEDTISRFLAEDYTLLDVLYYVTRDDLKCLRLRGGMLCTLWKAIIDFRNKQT

| IC50 [nM] | Structure (SMILES) |
| --- | --- |
| 5.1 | O=C(Nc1cccc2c1OCCn1nnnc1-2)c1cc(-n2cnc(C3CC3)c2)c(N2C[C@H]3C[C@@H]2CO3)cn1 [Example 62, 5-((1R,4R)-2-oxa-5-azabicyclo[2.2.1]heptan-5-yl)-4-(4-cyclopropyl-1H-imidazol-1-yl)-N-(5,6-dihydrobenzo[f]tetrazolo[1,5-d][1,4]oxazepin-8-yl)picolinamide] |
| 6.4 | Cc1cc(F)c(C(=O)Nc2cccc3c2OC[C@@H]([C@@H](C)O)n2nnnc2-3)cc1-n1cnc(C2CC2)c1 [Example 53, 5-(4-cyclopropyl-1H-imidazol-1-yl)-2-fluoro-N—((S)-5-((R)-1-hydroxyethyl)-5,6-dihydrobenzo[f]tetrazolo[1,5-d][1,4]oxazepin-8-yl)-4-methylbenzamide] |
| 5.8 | O=C(Nc1cccc2c1OCC(CO)n1cnnc1-2)c1cc(-n2cnc(C3CC3)c2)ccn1 (stereo not drawn) [Example 15, 4-(4-cyclopropyl-1H-imidazol-1-yl)-N-(5-(hydroxymethyl)-5,6-dihydrobenzo[f][1,2,4]triazolo[4,3-d][1,4]oxazepin-8-yl)picolinamide] |
| 15.6 | O=C(Nc1cccc2c1OCCn1cnnc1-2)c1cc(-n2cnc(C3CC3)c2)c(N2CCOCC2)cn1 [Example 44, 4-(4-cyclopropyl-1H-imidazol-1-yl)-N-(5,6-dihydrobenzo[f][1,2,4]triazolo[4,3-d][1,4]oxazepin-8-yl)-5-morpholinopicolinamide] |
| 0.5 | Cc1cc(F)c(C(=O)Nc2cccc3c2OCCn2nncc2-3)cc1-n1cnc(C2CC2)c1 [Example 40, 5-(4-cyclopropyl-1H-imidazol-1-yl)-N-(5,6-dihydrobenzo[f][1,2,3]triazolo[1,5-d][1,4]oxazepin-8-yl)-2-fluoro-4-methylbenzamide] |
| 11.7 | Cc1cc(F)c(C(=O)Nc2cccc3c2OC[C@@H](C2CC2)n2cnnc2-3)cc1-n1cnc(C2CC2)c1 [Example 8, (R)-5-(4-cyclopropyl-1H-imidazol-1-yl)-N-(5-cyclopropyl-5,6-dihydrobenzo[f][1,2,4]triazolo[4,3-d][1,4]oxazepin-8-yl)-2-fluoro-4-methylbenzamide] |
| 0.5 | Cc1cc(F)c(C(=O)Nc2cccc3c2OCC2(CC2)n2cnnc2-3)cc1-n1cnc(C2CC2)c1 [Example 10, 5-(4-cyclopropyl-1H-imidazol-1-yl)-2-fluoro-4-methyl-N-(6H-spiro[benzo[f][1,2,4]triazolo[4,3-d][1,4]oxazepine-5,1′-cyclopropan]-8-yl)benzamide] |
| 6 | C[C@H]1CN(c2cnc(C(=O)Nc3cccc4c3OCCn3nnnc3-4)cc2-n2cnc(C3CC3)c2)CCO1 [Example 66, (S)-4-(4-cyclopropyl-1H-imidazol-1-yl)-N-(5,6-dihydrobenzo[f]tetrazolo[1,5-d][1,4]oxazepin-8-yl)-5-(2-methylmorpholino)picolinamide] |
| 8 | Cc1cc(F)c(C(=O)Nc2cccc3c2OC[C@H](CF)n2nnnc2-3)cc1-n1cnc(C2CC2)c1 [Example 26, (R)-5-(4-cyclopropyl-1H-imidazol-1-yl)-2-fluoro-N-(5-(fluoromethyl)-5,6-dihydrobenzo[f]tetrazolo[1,5-d][1,4]oxazepin-8-yl)-4-methylbenzamide] |
| 5.7 | Cc1cc(F)c(C(=O)Nc2cccc3c2OC[C@H](C)n2nnnc2-3)cc1-n1cnc(C2CC2)c1 [Example 3, (S)-5-(4-cyclopropyl-1H-imidazol-1-yl)-2-fluoro-4-methyl-N-(5-methyl-5,6-dihydrobenzo[f]tetrazolo[1,5-d][1,4]oxazepin-8-yl)benzamide] |
| 2.6 | CC1(O)CN(c2cnc(C(=O)Nc3cccc4c3OCCn3nnnc3-4)cc2-n2cnc(C3CC3)c2)C1 [Example 67, 4-(4-cyclopropyl-1H-imidazol-1-yl)-N-(5,6-dihydrobenzo[f]tetrazolo[1,5-d][1,4]oxazepin-8-yl)-5-(3-hydroxy-3-methylazetidin-1-yl)picolinamide] |
| 0.9 | Cc1cc(F)c(C(=O)Nc2cccc3c2OC[C@H](CO)n2nnnc2-3)cc1-n1cnc(C2CC2)c1 [Example 23, (S)-5-(4-cyclopropyl-1H-imidazol-1-yl)-2-fluoro-N-(5-(hydroxymethyl)-5,6-dihydrobenzo[f]tetrazolo[1,5-d][1,4]oxazepin-8-yl)-4-methylbenzamide] |
| 3.1 | Cc1cc(F)c(C(=O)Nc2cccc3c2OC[C@H](CF)n2cnnc2-3)cc1-n1cnc(C2CC2)c1 [Example 32, (R)-5-(4-cyclopropyl-1H-imidazol-1-yl)-2-fluoro-N-(5-(fluoromethyl)-5,6-dihydrobenzo[f][1,2,4]triazolo[4,3-d][1,4]oxazepin-8-yl)-4-methylbenzamide] |
| 4.7 | C[C@@H]1COc2c(NC(=O)c3cc(-n4cnc(C5CC5)c4)c(N4CC[C@@H](O)C4)cn3)cccc2-c2nnnn21 [Example 77, 4-(4-cyclopropyl-1H-imidazol-1-yl)-5-((R)-3-hydroxypyrrolidin-1-yl)-N—((R)-5-methyl-5,6-dihydrobenzo[f]tetrazolo[1,5-d][1,4]oxazepin-8-yl)picolinamide] |
| 4.2 | Cc1cc(F)c(C(=O)Nc2cccc3c2OC2(CC2)Cn2nnnc2-3)cc1-n1cnc(C2CC2)c1 [Example 59, 5-(4-cyclopropyl-1H-imidazol-1-yl)-2-fluoro-4-methyl-N-(5H-spiro[benzo[f]tetrazolo[1,5-d][1,4]oxazepine-6,1′-cyclopropan]-8-yl)benzamide] |
| 4.5 | Cc1cc(F)c(C(=O)Nc2cccc3c2OC[C@@H](CF)n2cnnc2-3)cc1-n1cnc(C2CC2)c1 [Example 28, (S)-5-(4-cyclopropyl-1H-imidazol-1-yl)-2-fluoro-N-(5-(fluoromethyl)-5,6-dihydrobenzo[f][1,2,4]triazolo[4,3-d][1,4]oxazepin-8-yl)-4-methylbenzamide] |
| 3.9 | O=C(Nc1cccc2c1OCCn1nnnc1-2)c1cc(-n2cnc(C3CC3)c2)c(N2C[C@@H]3C[C@H]2CO3)cn1 [Example 64, 5-((1S,4S)-2-oxa-5-azabicyclo[2.2.1]heptan-5-yl)-4-(4-cyclopropyl-1H-imidazol-1-yl)-N-(5,6-dihydrobenzo[f]tetrazolo[1,5-d][1,4]oxazepin-8-yl)picolinamide] |
| 4.5 | Cc1cc(F)c(C(=O)Nc2cccc3c2OC[C@@H](CF)n2nnnc2-3)cc1-n1cnc(C2CC2)c1 [Example 30, (S)-5-(4-cyclopropyl-1H-imidazol-1-yl)-2-fluoro-N-(5-(fluoromethyl)-5,6-dihydrobenzo[f]tetrazolo[1,5-d][1,4]oxazepin-8-yl)-4-methylbenzamide] |
| 5.8 | Cc1cc(F)c(C(=O)Nc2cccc3c2OC[C@@H](C)n2nnnc2-3)cc1-n1cnc(C2CC2)c1 [Example 5, (R)-5-(4-cyclopropyl-1H-imidazol-1-yl)-2-fluoro-4-methyl-N-(5-methyl-5,6-dihydrobenzo[f]tetrazolo[1,5-d][1,4]oxazepin-8-yl)benzamide] |
| 5.6 | Cc1cc(F)c(C(=O)Nc2cccc3c2OCC(C)(C)n2cnnc2-3)cc1-n1cnc(C2CC2)c1 [Example 9, 5-(4-cyclopropyl-1H-imidazol-1-yl)-N-(5,5-dimethyl-5,6-dihydrobenzo[f][1,2,4]triazolo[4,3-d][1,4]oxazepin-8-yl)-2-fluoro-4-methylbenzamide] |
| 39.8 | Cc1cc(F)c(C(=O)Nc2cccc3c2OCCn2cnc(Br)c2-3)cc1-n1cnc(C2CC2)c1 [Example 74, N-(1-bromo-5,6-dihydrobenzo[f]imidazo[1,5-d][1,4]oxazepin-8-yl)-5-(4-cyclopropyl-1H-imidazol-1-yl)-2-fluoro-4-methylbenzamide] |
| 5.3 | Cc1cc(F)c(C(=O)Nc2cccc3c2OC2(CC2)Cn2cnnc2-3)cc1-n1cnc(C2CC2)c1 [Example 45, 5-(4-cyclopropyl-1H-imidazol-1-yl)-2-fluoro-4-methyl-N-(5H-spiro[benzo[f][1,2,4]triazolo[4,3-d][1,4]oxazepine-6,1′-cyclopropan]-8-yl)benzamide] |
| 5.7 | Cc1cc(F)c(C(=O)Nc2cccc3c2OCC(CO)n2cnnc2-3)cc1-n1cnc(C2CC2)c1 (stereo not drawn) [Example 81, 5-(4-cyclopropyl-1H-imidazol-1-yl)-2-fluoro-N-(5-(hydroxymethyl)-5,6-dihydrobenzo[f][1,2,4]triazolo[4,3-d][1,4]oxazepin-8-yl)-4-methylbenzamide] |
| 307 | Cc1cc(F)c(C(=O)Nc2cccc3c2OCCn2cnc(C)c2-3)cc1-n1cnc(C2CC2)c1 [Example 51, 5-(4-cyclopropyl-1H-imidazol-1-yl)-2-fluoro-4-methyl-N-(1-methyl-5,6-dihydrobenzo[f]imidazo[1,5-d][1,4]oxazepin-8-yl)benzamide] |
| 5.7 | C[C@@H]1COc2c(NC(=O)c3cc(-n4cnc(C5CC5)c4)ccn3)cccc2-c2nnnn21 [Example 4, (R)-4-(4-cyclopropyl-1H-imidazol-1-yl)-N-(5-methyl-5,6-dihydrobenzo[f]tetrazolo[1,5-d][1,4]oxazepin-8-yl)picolinamide] |
| 2.2 | C[C@@H]1COCCN1c1cnc(C(=O)Nc2cccc3c2OCCn2nnnc2-3)cc1-n1cnc(C2CC2)c1 [Example 70, (R)-4-(4-cyclopropyl-1H-imidazol-1-yl)-N-(5,6-dihydrobenzo[f]tetrazolo[1,5-d][1,4]oxazepin-8-yl)-5-(3-methylmorpholino)picolinamide] |
| 4.1 | CC(C)Oc1cnc(C(=O)Nc2cccc3c2OC[C@@H](C)n2nnnc2-3)cc1-n1cnc(C2CC2)c1 [Example 69, (R)-4-(4-cyclopropyl-1H-imidazol-1-yl)-5-isopropoxy-N-(5-methyl-5,6-dihydrobenzo[f]tetrazolo[1,5-d][1,4]oxazepin-8-yl)picolinamide] |
